Tests used:
rat-isolated aorta = details: cited from earlier work
human and rat GPR-14 = test: Radioligand binding ([125I] h-U-II, HEK-293 cell membranes); details: [125I] h-U-II binding to HEK-293 membranes with cloned GPR-14; species not given
Method: HEK-293 cell membranes containing stable cloned human and rat GPR-14 (20 ug/assay) were incubated with 200 pM [125I] h-U-II (200 Ci/mmol^−1 in the presence of increasing concentrations of test compounds in DMSO (0.1 nM to 10 uM), in a final incubation volume of 200 ul (20 mM Tris-HCl, 5 mM MgCl2). Incubation was done for 30 minutes at room temperature followed by filtration GF/B filters with Brandel cell harvester. ^125I labeled U-II binding was quantitated by gamma counting. Nonspecific binding was defined by ^125I U-II binding in the presence of 100 nM of unlabeled human U-II. Analysis of the data was performed by nonlinear least square fitting.

| SMILES | contractile activity (rat-isolated aorta) | Ki (human and rat GPR-14) |
| --- | --- | --- |
| CC(C)[C@H](NC(=O)[C@@H]1CSSC[C@H](NC(=O)[C@H](CC(=O)O)NC(=O)[C@@H]2CCCN2C(=O)[C@@H](NC(=O)[C@@H](N)CCC(=O)O)[C@@H](C)O)C(=O)N[C@@H](Cc2ccccc2)C(=O)N[C@@H](Cc2c[nH]c3ccccc23)C(=O)N[C@@H](CCCCN)C(=O)N[C@@H](Cc2ccc(O)cc2)C(=O)N1)C(=O)O [Human Urotensin-II] | most potent contractile agonist identified to date | – |
| CN(C)CCCOc1ccc(CN2CC[C@H](NC(=O)[C@H](Cc3ccccc3)NC(=O)c3ccc(Br)cc3)C2)cc1 [Example 15] | – | 390 nM |

From patent US6514970B1, “Urotensin-II receptor antagonists” (SmithKline Beecham Corporation, priority 1999, dated 2003)
